US6303292A, “Immunoreactive polypeptide compositions” (Chiron Corporation, priority 1998, dated 2001)
“Also recorded” adds a separate entry of the source.

Tested on: antibodies in the Q1 and Q3 plasma (patient Q)
Assay: ELISA on Q1 and Q3 specific 12-mer peptides reacted with Q1 and Q3 plasma
Type: binding, human
Details: for binding of plasma to the peptide versus background binding to a panel of 12 randomly chosen control peptides (Student's Test): Q1/Q3 plasma
Experimental: Polystyrene plates (Nunc immuno plate maxisorb F96) were coated with streptavidin by incubating overnight at 4° C. with 0.1 ml/well of a 5 μg/ml solution of streptavidin (Sigma Cat. No. S4762) in 0.1 M carbonate buffer at pH 9.6. After removal of the streptavidin solution, the wells were washed four times with a 0.1% solution of Tween 20 in PBS. Nonspecific binding was blocked by incubating each well with 0.2 ml of 2% BSA in PBS for 1 h at 20° C. The wells were again washed four times with PBS/Tween 20. Plates were air-dried and stored at 4° C. until required. The streptavidin in each well was coupled to cleaved peptides by incubation with 100 μl of a 1:100 dilution of cleaved peptide solution with 0.1% BSA in PBS containing 0.1% sodium azide for 1 h at 20° C. After incubation, the plate was washed four times with PBS/Tween 20. Each well was incubated with 100 μl of a suitable dilution of serum (diluted with 2% BSA in PBS containing 0.1% sodium azide) for 1 h at 20° C. or overnight at 4° C. followed by four washes with PBS/Tween 20. Bound antibody was detected by reaction for 1 h at 20° C. in 0.1 ml conjugate. This consisted of 0.25 ml/l (a saturating level) of horseradish peroxidase-labeled goat anti-rabbit IgG (H+L) (Kirkegaard and Perry Labs, Gaithersburg, Md.) in CASS (0.1% sheep serum, 0.1% Tween 20, 0.1% sodium caseinate diluted in 0.1M PBS, pH 7.2). The wells were washed 2 times with PBS/Tween 20 followed by two washes with PBS only. The presence of enzyme was detected by reaction for 45 min at 20° C. with 0.1 ml of a freshly-prepared solution containing 50 mg of ammonium 2,2'azino-bis[3-ethylbenzothiazoline-6-sulphonate (ABTS, Boehringer Mannheim Cat. no. 122661) and 0.03 ml of 35% (w/w) hydrogen peroxide solution in 100 ml of 0.1 M phosphate/0.08 M citrate buffer, pH 4.0. Color development was measured in a Titertek Multiscan MC plate reader in the dual wavelength mode at 405 nm against a reference wavelength of 492 nm.
To examine the effect of the amino acid substitutions observed in the Q1 and Q3 E2 HV domains on antibody binding, we synthesized a Q1 and Q3 specific 12-mer peptide from amino acids 396 to 407 (HVE Q1 or Q3 in FIG. 7B) and separately reacted the Q1 and Q3 plasma with each peptide in an ELISA.

Row | Sequence | binding of plasma to the peptide versus background binding to a panel of 12 randomly chosen control peptides (Student's Test) | Elisa Results on 12-mer Peptides, Mean (Q1 plasma) | Elisa Results on 12-mer Peptides, Mean (Q3 plasma) | reaction of antibodies in patient Q plasma with the peptide in ELISA (Q1 and Q3 plasma, peptides amino acids 396-407)
1 | TAGFVRLFETGP [Q3 peptide, Q3 specific 12-mer peptide from amino acids 396 to 407 of the HCV E2/NS1 HV domain] | not statistically significant | 0.691 | 0.693 | –
2 | TARFAGFFQSGA [Q1 peptide, Q1 specific 12-mer peptide from amino acids 396 to 407 of the HCV E2/NS1 HV domain] | significantly above background binding | 1.158 | 1.022 | reacted with the Q1 peptide; also recorded: developed an antibody response to the Q1 peptide
